Active and inactive are the calls of the source. No cut-off for these calls is given here.
Legend:
[1] = biological target: T1, Muscarinic acetylcholine receptor M2 (Homo sapiens) (UniProt P08172); test: Agonist activity at M2 receptor (unknown origin) at 3 uM by calcium mobilization assay; assay type: functional
T1 sequence (whole entry): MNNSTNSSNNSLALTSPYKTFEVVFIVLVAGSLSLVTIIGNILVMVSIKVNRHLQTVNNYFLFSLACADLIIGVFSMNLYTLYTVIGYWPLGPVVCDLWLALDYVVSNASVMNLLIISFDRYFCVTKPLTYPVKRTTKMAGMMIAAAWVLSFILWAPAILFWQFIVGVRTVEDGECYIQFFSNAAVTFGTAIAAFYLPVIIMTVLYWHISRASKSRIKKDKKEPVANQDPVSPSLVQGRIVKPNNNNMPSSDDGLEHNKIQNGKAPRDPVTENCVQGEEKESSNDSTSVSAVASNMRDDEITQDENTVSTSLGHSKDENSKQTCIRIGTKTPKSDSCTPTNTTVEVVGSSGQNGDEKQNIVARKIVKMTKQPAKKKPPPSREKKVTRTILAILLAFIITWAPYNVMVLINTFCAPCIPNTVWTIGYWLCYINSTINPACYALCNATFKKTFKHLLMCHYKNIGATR

[2] = biological target: T2, Muscarinic acetylcholine receptor M4 (Homo sapiens) (UniProt P08173); test: Partial agonist activity at human M4 receptor co-expressed with Galpha16 in CHO cells assessed as calcium mobilization at 30 nM after 60 mins by FLIPR assay; assay type: functional, cell-based
T2 sequence (whole entry): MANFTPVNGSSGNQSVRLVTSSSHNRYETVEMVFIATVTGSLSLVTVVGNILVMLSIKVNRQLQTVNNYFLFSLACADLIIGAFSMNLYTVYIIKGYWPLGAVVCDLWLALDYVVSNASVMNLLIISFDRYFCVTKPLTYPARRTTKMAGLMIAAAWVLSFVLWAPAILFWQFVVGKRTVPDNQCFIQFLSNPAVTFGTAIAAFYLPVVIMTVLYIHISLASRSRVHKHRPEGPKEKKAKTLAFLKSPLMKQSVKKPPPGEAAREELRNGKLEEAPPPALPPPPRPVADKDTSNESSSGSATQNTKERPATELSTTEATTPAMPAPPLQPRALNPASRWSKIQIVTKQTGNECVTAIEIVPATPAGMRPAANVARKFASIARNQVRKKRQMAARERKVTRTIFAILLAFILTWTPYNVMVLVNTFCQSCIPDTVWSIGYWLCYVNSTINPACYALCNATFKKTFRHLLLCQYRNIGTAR

[3] = biological target: Muscarinic acetylcholine receptor M3 (Homo sapiens) (UniProt P20309); test: Agonist activity at M3 receptor (unknown origin) at 3 uM by calcium mobilization assay; assay type: functional
Muscarinic acetylcholine receptor M3 (Homo sapiens), sequence (P20309 whole entry, looked up): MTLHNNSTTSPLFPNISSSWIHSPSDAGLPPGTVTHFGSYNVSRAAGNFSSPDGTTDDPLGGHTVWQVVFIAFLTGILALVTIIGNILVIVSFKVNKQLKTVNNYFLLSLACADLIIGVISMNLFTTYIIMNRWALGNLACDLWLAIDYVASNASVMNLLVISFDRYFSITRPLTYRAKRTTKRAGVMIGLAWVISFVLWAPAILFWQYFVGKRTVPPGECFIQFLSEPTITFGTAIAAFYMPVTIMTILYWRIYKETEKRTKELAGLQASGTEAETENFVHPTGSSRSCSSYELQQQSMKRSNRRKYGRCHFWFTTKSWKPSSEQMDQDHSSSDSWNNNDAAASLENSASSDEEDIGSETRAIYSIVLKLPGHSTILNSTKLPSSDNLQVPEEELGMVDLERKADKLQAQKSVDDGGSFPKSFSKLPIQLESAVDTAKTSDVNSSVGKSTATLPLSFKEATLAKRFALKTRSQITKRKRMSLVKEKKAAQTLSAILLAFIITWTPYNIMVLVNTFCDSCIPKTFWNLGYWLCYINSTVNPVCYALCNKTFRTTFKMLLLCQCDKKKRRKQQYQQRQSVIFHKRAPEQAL

[4] = biological target: Muscarinic acetylcholine receptor M3 (Homo sapiens) (UniProt P20309); test: Partial agonist activity at human M3 receptor in CHO cells assessed as calcium mobilization at 3 uM after 60 mins by FLIPR assay; assay type: functional, cell-based
[5] = biological target: T2, Muscarinic acetylcholine receptor M4 (Homo sapiens); test: Agonist activity at M4 receptor (unknown origin) at 3 uM by calcium mobilization assay; assay type: functional
[6] = biological target: T3, Muscarinic acetylcholine receptor M1 (Homo sapiens) (UniProt P11229); test: Partial agonist activity at human M1 receptor in CHO cells assessed as calcium mobilization at 3 uM after 60 mins by FLIPR assay; assay type: functional, cell-based
T3 sequence (whole entry): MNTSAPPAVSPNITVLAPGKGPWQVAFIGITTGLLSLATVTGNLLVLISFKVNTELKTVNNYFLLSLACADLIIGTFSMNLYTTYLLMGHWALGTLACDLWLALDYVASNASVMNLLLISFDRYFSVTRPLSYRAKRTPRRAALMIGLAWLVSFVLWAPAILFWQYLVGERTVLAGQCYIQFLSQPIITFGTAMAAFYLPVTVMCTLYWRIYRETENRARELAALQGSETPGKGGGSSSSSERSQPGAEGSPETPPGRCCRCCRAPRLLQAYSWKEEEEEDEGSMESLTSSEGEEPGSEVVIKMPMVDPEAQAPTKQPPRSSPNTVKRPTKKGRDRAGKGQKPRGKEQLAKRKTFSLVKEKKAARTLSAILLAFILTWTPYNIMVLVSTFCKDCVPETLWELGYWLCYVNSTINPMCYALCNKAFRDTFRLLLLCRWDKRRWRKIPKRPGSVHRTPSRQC

[7] = biological target: T4, Muscarinic acetylcholine receptor M5 (Homo sapiens) (UniProt P08912); test: Partial agonist activity at human M5 receptor in CHO cells assessed as calcium mobilization at 3 uM after 60 mins by FLIPR assay; assay type: functional, cell-based
T4 sequence (whole entry): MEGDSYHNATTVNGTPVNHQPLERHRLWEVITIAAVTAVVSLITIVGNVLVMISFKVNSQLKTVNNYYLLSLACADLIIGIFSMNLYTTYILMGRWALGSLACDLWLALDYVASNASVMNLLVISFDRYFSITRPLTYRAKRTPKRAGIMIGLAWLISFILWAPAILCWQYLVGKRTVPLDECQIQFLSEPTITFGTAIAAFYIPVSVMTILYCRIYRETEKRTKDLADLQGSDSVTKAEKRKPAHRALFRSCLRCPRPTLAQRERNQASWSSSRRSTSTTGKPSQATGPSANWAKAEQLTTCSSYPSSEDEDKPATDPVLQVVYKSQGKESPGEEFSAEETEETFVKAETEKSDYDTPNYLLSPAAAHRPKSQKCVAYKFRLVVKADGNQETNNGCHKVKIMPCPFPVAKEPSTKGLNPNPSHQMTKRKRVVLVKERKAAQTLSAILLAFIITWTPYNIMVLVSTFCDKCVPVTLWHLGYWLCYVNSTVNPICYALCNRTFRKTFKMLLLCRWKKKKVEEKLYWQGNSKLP

[8] = biological target: T3, Muscarinic acetylcholine receptor M1 (Homo sapiens); test: Agonist activity at M1 receptor (unknown origin) at 3 uM by calcium mobilization assay; assay type: functional
[9] = biological target: T4, Muscarinic acetylcholine receptor M5 (Homo sapiens); test: Agonist activity at M5 receptor (unknown origin) at 3 uM by calcium mobilization assay; assay type: functional
[10] = biological target: T1, Muscarinic acetylcholine receptor M2 (Homo sapiens); test: Partial agonist activity at human M2 receptor co-expressed with Galpha16 in CHO cells assessed as calcium mobilization at 3 uM after 60 mins by FLIPR assay; assay type: functional, cell-based
[11] = biological target: T2, Muscarinic acetylcholine receptor M4 (Homo sapiens); test: Partial agonist activity at human M4 receptor co-expressed with Galpha16 in CHO cells assessed as calcium mobilization at 3 uM after 60 mins by FLIPR assay; assay type: functional, cell-based
[12] = biological target: T2, Muscarinic acetylcholine receptor M4 (Homo sapiens); test: Agonist activity at M4 receptor (unknown origin) at 10 uM by calcium mobilization assay; assay type: functional
Cynomolgus monkey [13] = test: Cardiotoxicity in telemetered cynomolgus monkey assessed as increase in mean blood pressure at 1 to 3 mg/kg, sc measured after 1 to 4 hrs by telemetry method; assay type: toxicity, organism-based, Macaca fascicularis; parameters: route subcutaneous; conditions: in vivo
Cynomolgus monkey [14] = test: Induction of salivation in sc dosed cynomolgus monkey; assay type: organism-based, Macaca fascicularis; conditions: in vivo
Cynomolgus monkey [15] = test: Induction of vomiting in sc dosed cynomolgus monkey; assay type: organism-based, Macaca fascicularis; conditions: in vivo
Cynomolgus monkey [16] = test: Induction of miosis in sc dosed cynomolgus monkey; assay type: organism-based, Macaca fascicularis; conditions: in vivo
Cynomolgus monkey [17] = test: Cardiotoxicity in telemetered cynomolgus monkey assessed as increase in heart rate at 1 to 3 mg/kg, sc measured after 1 to 4 hrs by telemetry method; assay type: toxicity, organism-based, Macaca fascicularis; parameters: route subcutaneous; conditions: in vivo
Mus musculus [18] = test: Induction of salivation in ddY mouse at 10 to 30 mg/kg, sc measured for 30 mins after drug administration; assay type: organism-based; parameters: dose 10-30 mg/kg, route subcutaneous; conditions: in vivo, 0.5 h
Rattus norvegicus [19] = test: Potentiation of haloperidol-induced catalepsy in Sprague-Dawley rats at 30 mg/kg, sc administered 15 mins after haloperidol injection measured after 45 mins; assay type: ADME, organism-based; parameters: dose 30 mg/kg, route subcutaneous; conditions: in vivo, 0.75 h
Cynomolgus monkey [20] = test: Cardiotoxicity in telemetered cynomolgus monkey assessed as prolongation of QRS duration at 1 to 3 mg/kg, sc measured after 1 to 4 hrs by telemetry method; assay type: toxicity, organism-based, Macaca fascicularis; parameters: route subcutaneous; conditions: in vivo
Cynomolgus monkey [21] = test: Cardiotoxicity in telemetered cynomolgus monkey assessed as prolongation of QTc interval at 1 to 3 mg/kg, sc measured after 1 to 4 hrs by telemetry method; assay type: toxicity, organism-based, Macaca fascicularis; parameters: route subcutaneous; conditions: in vivo
Cynomolgus monkey [22] = test: Induction of drowsiness in sc dosed cynomolgus monkey; assay type: organism-based, Macaca fascicularis; conditions: in vivo
[23] = biological target: T5, Muscarinic acetylcholine receptor M4 (Homo sapiens, UniProt P08173); test: (§1) Partial agonist activity at human M4 receptor co-expressed with Galpha16 in CHO cells assessed as calcium mobilization after 60 mins by FLIPR assay; assay type: functional, cell-based
T5 sequence (P08173 whole entry): T2 sequence (whole entry)

[24] = biological target: T2, Muscarinic acetylcholine receptor M4 (Homo sapiens); test: as §1; assay type: functional, cell-based
Rattus norvegicus [25] = species: Rattus norvegicus; conditions: Sprague-Dawley, 0.1 to 1 mg/kg
Mus musculus [26] = test: Induction of seizures in ddY mouse at 300 mg/kg, sc measured for 45 mins after drug injection; assay type: organism-based; parameters: dose 300 mg/kg, route subcutaneous; conditions: in vivo, 0.75 h
[27] = biological target: Voltage-gated inwardly rectifying potassium channel KCNH2 (Homo sapiens, UniProt Q12809); test: Inhibition of human ERG assessed as decrease in tail current amplitude measured after 5 mins by whole cell patch clamp technique
Voltage-gated inwardly rectifying potassium channel KCNH2, sequence (Q12809 whole entry): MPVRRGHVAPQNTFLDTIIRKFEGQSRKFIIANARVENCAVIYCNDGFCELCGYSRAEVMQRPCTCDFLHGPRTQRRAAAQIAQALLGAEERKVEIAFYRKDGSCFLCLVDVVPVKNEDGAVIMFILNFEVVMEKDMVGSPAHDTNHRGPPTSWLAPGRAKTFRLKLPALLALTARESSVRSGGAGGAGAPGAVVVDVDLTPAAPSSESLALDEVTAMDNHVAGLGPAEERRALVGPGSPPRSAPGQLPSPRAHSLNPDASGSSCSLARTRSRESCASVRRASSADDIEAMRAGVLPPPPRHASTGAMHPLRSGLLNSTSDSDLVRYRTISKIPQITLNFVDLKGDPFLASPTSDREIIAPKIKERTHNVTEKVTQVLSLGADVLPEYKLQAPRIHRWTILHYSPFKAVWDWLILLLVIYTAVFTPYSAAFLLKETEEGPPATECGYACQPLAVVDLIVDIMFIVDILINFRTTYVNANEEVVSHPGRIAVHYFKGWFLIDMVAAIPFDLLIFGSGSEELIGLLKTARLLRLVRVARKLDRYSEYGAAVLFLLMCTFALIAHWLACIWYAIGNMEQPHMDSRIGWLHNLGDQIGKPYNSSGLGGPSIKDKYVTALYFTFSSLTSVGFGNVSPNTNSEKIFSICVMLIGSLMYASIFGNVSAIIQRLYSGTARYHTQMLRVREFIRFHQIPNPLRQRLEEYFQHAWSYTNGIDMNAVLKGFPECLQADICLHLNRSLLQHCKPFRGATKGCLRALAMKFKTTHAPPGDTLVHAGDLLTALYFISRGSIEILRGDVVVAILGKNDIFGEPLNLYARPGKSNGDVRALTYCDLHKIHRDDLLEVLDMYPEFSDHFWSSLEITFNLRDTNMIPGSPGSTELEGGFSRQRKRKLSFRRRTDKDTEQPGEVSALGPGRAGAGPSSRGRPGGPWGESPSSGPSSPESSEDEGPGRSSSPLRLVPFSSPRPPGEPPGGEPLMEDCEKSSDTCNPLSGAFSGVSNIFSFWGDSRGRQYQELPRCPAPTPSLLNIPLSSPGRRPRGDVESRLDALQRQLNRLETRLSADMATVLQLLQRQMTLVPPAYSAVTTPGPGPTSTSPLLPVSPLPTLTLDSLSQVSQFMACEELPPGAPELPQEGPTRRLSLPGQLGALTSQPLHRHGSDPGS

SMILES: CCOC(=O)N1CCC(CN2CC[C@H](N3C(=O)Cc4ccccc43)C2)CC1
- Activity [1]: 30%
- Intrinsic activity [2]: 79%
- Activity [3]: 7%
- Activity [4]: 7%
- Activity [5]: 124%
- Activity [6]: 83%
- Activity [7]: 5%
- Activity [8]: 83%
- Activity [9]: 5%
- Activity [10]: 30%

SMILES: CCOC(=O)N1CCC(CN2CC[C@H](N3C(=O)Cc4ccccc43)C2)(OC)CC1
- Intrinsic activity [11]: 13%

SMILES: CC(C)=CCN1CCC(N2C(=O)C(C)(C)c3ccccc32)CC1
- Activity [5]: 14%
- Activity [12]: 33%

SMILES: CCCCCCOc1nsnc1C1=CCCN(C)C1.O=C(O)C(O)C(O)C(=O)O [XANOMELINE TARTRATE]
- Activity [1]: 34%
- Activity [3]: 85%
- Activity (Cynomolgus monkey [13]): Toxic
- Activity (Cynomolgus monkey [14]): Toxic
- Activity (Cynomolgus monkey [15]): Toxic
- Activity (Cynomolgus monkey [16]): Toxic
- Activity (Cynomolgus monkey [17]): Toxic
- Activity (Mus musculus [18]): Toxic
- Activity [5]: 83%
- Activity (Rattus norvegicus [19]): Toxic
- Activity (Cynomolgus monkey [20]): Toxic
- Activity (Cynomolgus monkey [21]): Toxic
- Activity (Cynomolgus monkey [22]): Toxic
- Activity [8]: 145%
- Activity [9]: 33%

SMILES: CCOC(=O)N1CCC(CN2CC[C@@H](N3C(=O)Cc4ccccc43)C2)CC1
- Activity [1]: 27%
- Activity [3]: 8%
- Activity [5]: 86%
- Activity [8]: 88%
- Activity [9]: 4%

SMILES: CCOC(=O)N1CCC(CN2CC(N3C(=O)Cc4ccccc43)C2)CC1
- Activity [1]: 2%
- Activity [3]: 3%
- Activity [5]: 46%
- Activity [8]: 65%
- Activity [9]: 3%

SMILES: CCOC(=O)N1CCC(CN2CCCC(N3C(=O)Cc4ccccc43)CC2)CC1 (stereo unspecified)
- Activity [1]: 4%
- Activity [3]: 2%
- Activity [5]: 4%
- Activity [8]: 7%
- Activity [9]: 3%

SMILES: CO/N=C(\C#N)[C@H]1CN2CCC1CC2 [SABCOMELINE]
- EC50 [23]: 0.0057 µM
- Intrinsic activity [24]: 28%
- inhibition (Rattus norvegicus [25]): Active

SMILES: CCOC(=O)N1CCC(CN2CCC(N3C(=O)Cc4ccccc43)CC2)CC1
- Activity [1]: 6%
- Activity [3]: 2%
- Activity [5]: 33%
- Activity [8]: 88%
- Activity [9]: 6%

SMILES: CC[C@@H]1C(=O)OC[C@@H]1Cc1cncn1C [PILOCARPINE]
- Activity (Mus musculus [26]): Toxic

SMILES: CCOC(=O)N1CCC(C)(CN2CC[C@H](N3C(=O)Cc4ccccc43)C2)CC1
- EC50 [23]: 0.015 µM
- Intrinsic activity [24]: 65%
- Activity [4]: 2%
- Activity [6]: 49%
- Activity [7]: 4%
- IC50 [27]: 3.5 µM
- Activity [10]: 3%

SMILES: CCOC(=O)N1CCC(O)(CN2CC[C@H](N3C(=O)Cc4ccccc43)C2)CC1
- EC50 [23]: 0.32 µM
- Intrinsic activity [24]: 45%
- Activity [4]: 31%
- Activity [6]: 57%
- Activity [7]: 3%
- IC50 [27]: 3.9 µM
- Activity [10]: 12%
